Here are results for 1 compound from US20110218143A1, “COMPOSITIONS AND METHODS FOR TISSUE REPAIR” (UNIVERSITY OF FLORIDA RESEARCH FOUNDATION, priority 2007, published 2011).

Where “and” joins values, the source holds several entries; their conditions need not be identical. Equal values may be shown once. Entries after “also recorded” stand apart in the source; their conditions may differ.

For assay [1], the system named is mice with STZ induced diabetes. In words: Blood glucose in streptozotocin (STZ) induced diabetes model. As to conditions: STZ 50 mg/kg i.p.; celastrol 2.5 mg/kg by injection from day -2, three times per week; monitored 30 days. The format is in vivo, C57BL6/J mice. The procedure: The administration of streptozotocin to induce pancreatic cell death is a well-known model of diabetes, see for example, Like and Rossini, “Streptozotocin-induced pancreatic insulitis: new model of diabetes mellitus.” Science. Jul. 30, 1976; 193(4251):415-7. Fasting C57BL6/J mice received 50 mg/kg streptozotocin (STZ) by intraperitoneal injection at day 0. Two days prior to (−2 day) and concurrently with STZ injection half of the mice also received celastrol by injection (2.5 mg/kg). Celastrol injections continued three times per week throughout the experiment. Blood glucose levels were monitored for 30 days after treatment (FIG. 9). […] In mice, normoglycemia is typically less than 200 mg/dL blood glucose.

Assay [2] has as its system mice with STZ induced diabetes. In words: Glucose challenge test in STZ mice. The format is in vivo, C57BL6/J mice. As to conditions: 1 g glucose/kg, monitored up to 5 hours, placebo mice at or above 400 mg/dl between 0.5 and 2 hours. The procedure: STZ was administered to C57BL6/J mice as described above to induce diabetes. Groups of C57BL6/J mice that received either STZ and placebo or STZ and celastrol were then subjected to a glucose challenge test to assay glucose metabolism. STZ mice received 1 g glucose/kg. Blood glucose levels were monitored for up to 5 hours following administration of glucose. […] Blood glucose levels never reached these levels in STZ mice treated with celastrol. In fact, mice treated with celastrol were better able to metabolize glucose than STZ mice that received placebo (FIG. 10).

The test system of assay [3] is irradiated wild type mice, C57BL/6. Nature of the assay: Secondary adaptive transfer of bone marrow cells into irradiated wild type mice. The format is in vivo, C57BL/6 mice. As to conditions: bone marrow cells from celastrol treated primary adaptive transfer group, 1.5×10^6 cells per mouse; at 7 weeks; control group died within 10 days. From the text:
Wild type mice that survived the primary transfer were used for secondary transfer. Bone marrow cells obtained from these mice were collected and transferred into irradiated wild type mice, C57BL/6 at 1.5×10^6 cells per mouse.

Assay [4] deals with mice with ALF induced by TAA. In words: Liver histology in thioacetamide (TAA) induced acute liver failure. The assay is classed as in vivo, C57BL6/J mice. As to conditions: TAA 500 mg/kg; celastrol 2.5 mg/kg by injection; 3 days after ALF induction. The procedure: The administration of thiomacetamide (TAA) to induce liver damage is a well-known model of acute liver failure (ALF), see for example, Müller et al., “Thioacetamide-induced cirrhosis-like liver lesions in rats—usefulness and reliability of this animal model.” Exp Pathol. 1988; 34(4):229-36. Groups of C57BL6/J mice received either TAA (1000 mg/kg), TAA (500 mg/kg), or placebo by intraperitoneal injection. The group receiving TAA (500 mg/kg) was divided into two subgroups, and one group received NS by injection and the other group received celastrol by injection (2.5 mg/kg). Mice were sacrificed either one or three days after treatment. The livers of the mice were removed for histological examination (FIGS. 11A-11D).

The subject of assay [5] is mice with ALF induced by TAA. In words: Survival in TAA induced acute liver failure. The assay is classed as in vivo, C57BL6/J mice. As to conditions: TAA 1000 mg/kg and celastrol 3 mg/kg i.p.; examined 3 days or longer; TAA alone 100% mortality. Here is the method: Thiomacetamide (TAA) was administered to C57BL6/J mice to induce liver damage. Groups of at least 6 C57BL6/J mice received either TAA (1000 mg/kg) and a placebo, TAA (1000 mg/kg) and celastrol (3 mg/kg), or placebo only by intraperitoneal injection. Mice were examined for 3 days or longer to determine survival (FIG. 12).

For assay [6], the system named is stem cell populations in bone marrow (cd34+, cd45+, Sca-1+ cells). Nature of the assay: FACS of cells expressing stem cell markers CD34, CD45, Sca-1 in bone marrow samples. The format is in vivo, C57BL6/J mice. The procedure:
Mice received either a placebo (PBS) or oridonin (3.0 mg/kg) by intraperitoneal injection.

A further assay concerns NOD-scid mice. In words: Adaptive transfer of splenocytes into NOD-scid mice. The assay is classed as in vivo. As to conditions: splenocytes from celastrol treated NOD mice, 5.3×10^6 cells per mouse via tail vein; at 68 day. From the text: NOD mice were sacrificed and splenocytes collected from celastrol-treated healthy mice and mice that became diabetic recently were adaptively transferred at 5.3×10^6 cells per mouse into NOD-scid mice (mice free from immune system) via tail vein injection. Blood glucose levels of the mice were monitored starting from 4 weeks after the adaptive transfer was made. All mice (n=4) that received splenocytes from diabetic mice became diabetic between 31-38 days (FIG. 17, Kaplan-Meier graph). In contrast, mice (12/12) that received splenocytes from celastrol treated mice were free of diabetes (hyperglycemic condition) at 68 day (FIG. 17).

The test system of assay [7] is irradiated wild type mice, C57BL/6. In words: Transfer of blood cells of treated GFP mice into irradiated wild type mice. The assay is classed as in vivo, C57BL/6 mice. Here is the method:
As reported herein, celastrol activated and mobilized stem cells into peripheral blood. These observations were extended using GFP mice to analyse stem cell mobilization. Mice expressing GFP in their bone marrow were treated with celastrol and placebo. Blood samples were collected on the third day and red blood cells were lysed. White blood cells containing mobilized stem cells, if any, were injected at 0.5×10^6 cells per mouse through retro-orbital sinus into wild type mice, C57BL/6 that were irradiated to destroy the hematopoietic systems. Cells obtained from placebo-treated GFP mice were injected into a group of wild type mice which served as control. Blood samples from wild type mice that received stem cells from celastrol-treated GFP mice were analyzed after 3, 4 and 5 months of transfer.

For assay [8], the system named is mice with DOX induced heart disease. In words: Survival in doxorubicin (DOX) induced heart disease. The format is in vivo, C57BL6/J mice. As to conditions: DOX 20 mg/kg and celastrol 3 mg/kg; after 2 weeks; DOX with placebo 80% mortality. The procedure: The administration of doxorubicin (DOX; adriamycin) to induce cardiac damage is a well-known model of heart disease see for example, Rosenhoff et al., “Adriamycin-induced cardiac damage in the mouse: a small-animal model of cardiotoxicity.” J Natl Cancer Inst. July 1975; 55(1):191-4; and van der Vijgh et al., “Morphometric study of myocardial changes during doxorubicin-induced cardiomyopathy in mice.” Eur J Cancer Clin Oncol. October 1988; 24(10):1603-8. Doxorubicin was administered to C57BL6/J mice to induce heart damage. Groups of 13-14 C57BL6/J mice received either DOX (20 mg/kg) and a placebo, or DOX (20 mg/kg) and celastrol (3 mg/kg). Mice were examined after 2 weeks to determine survival (FIG. 13).

[9] abbreviates: celastrol 2.5 mg/kg i.p., 24 hours post treatment.

As to `CC1=C(O)C(=O)C=C2C1=CC=C1[C@@]2(C)CC[C@@]2(C)[C@@H]3C[C@](C)(C(=O)O)CC[C@]3(C)CC[C@]12C` [celastrol], in assay [1], the “blood glucose levels in STZ mice relative to STZ mice injected with saline placebo” value is reported as “substantially lower; also recorded: normoglycemia”. Also, in assay [2], the “blood glucose levels after glucose challenge” value is less than 400 mg/dL. Besides, the “mice still surviving secondary transfer” value in [3] stood at 85.7%. In [4], the “liver histology after ALF induction” value is “regression of liver injury”. Further, the values for the survival in assay [5] and in assay [8] were 71.4% and 40%, respectively. Moreover, in assay [6] (setting [9]), the “cd34+ cells, percent of the population of bone marrow cells” value is listed as 0.2%. The “fold increase of percentage of cd34+ cells in bone marrow over control” value in [6] (setting [9]) is approximately 4 fold; in assay [6] (celastrol 2.5 mg/kg i.p., 48 hours) it was approximately 2 fold. The “fold increase of percentage of cd45+ cells in bone marrow vs untreated control” value in assay [6] (setting [9]) is given as “about 2 fold”. Further, the “increase in CD45 population in bone marrow” value in assay [6] (celastrol 2.5 mg/kg i.p., 48 hours post treatment, undetectable in placebo mice) is recorded as “still detectable”. In addition, the “fold increase in the proportion of Sca-1+ stem cells in bone marrow vs untreated mice” value in assay [6] (celastrol 2.5 mg/kg i.p., by 48 hours) was approximately 3 fold; in assay [6] (celastrol 2.5 mg/kg i.p., time not printed (before 48 hours)), “approximately 4 fold”. Also, the “increase in cd34+, cd45+ and sca-1+ cells compared with GM-CSF” value in assay [6] (doses not given) was “exceeded that observed using GM-CSF”. Besides, the “recipient mice free of diabetes (hyperglycemic condition)” value with NOD-scid mice is listed as 12/12. In addition, the “recipient mice surviving for at least 5 months” value in [7] (irradiated mice given 0.5×10^6 white blood cells from celastrol treated GFP mice, n=4, placebo-cell recipients died between 12 and 16 days) amounted to 50%. Further, the “survival time of the other two recipient mice” value in assay [7] (irradiated mice given cells from celastrol treated GFP mice) was 17 days and 25 days.
